The values that follow come from US5770687A, “Comformationally constrained backbone cyclized somatostatin analogs” (Peptor Limited, priority 1996, dated 1998).

Like-named read-outs stand apart in the source and are kept apart here. Peptide text beside a SMILES is read from it.

Assay [1] addresses T1, SSTR-4 (Homo sapiens, UniProt P31391). The conditions noted are these: Table 22; known SST analogs, literature values; cited from earlier work.
The target in assay [2] is T2, human SSTR-5 (Homo sapiens, UniProt P35346). The conditions noted are these: Table 22; known SST analogs, literature values; read-out: IC50 value hSSTR 5; cited from earlier work.
Assay [3] deals with T3, rat SSTR-5 (Rattus norvegicus, UniProt P30938).
T3 sequence (P30938 1-363): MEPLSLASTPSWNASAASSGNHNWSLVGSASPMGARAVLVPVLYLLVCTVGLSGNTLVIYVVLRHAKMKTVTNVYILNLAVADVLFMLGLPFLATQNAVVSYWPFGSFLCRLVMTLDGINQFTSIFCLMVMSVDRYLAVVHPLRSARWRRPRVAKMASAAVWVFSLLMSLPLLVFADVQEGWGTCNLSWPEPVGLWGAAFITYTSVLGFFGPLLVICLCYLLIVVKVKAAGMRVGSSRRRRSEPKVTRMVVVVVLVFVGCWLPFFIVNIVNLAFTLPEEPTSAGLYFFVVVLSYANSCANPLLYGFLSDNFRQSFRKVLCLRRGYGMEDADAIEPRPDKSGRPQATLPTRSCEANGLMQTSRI
Particulars: Table 22; known SST analogs, literature values; read-out: IC50 value rSSTR 5; cited from earlier work.

Assay [4] has as its system SSTR-2. Description: Radioligand binding, inhibition of 125I-Tyr11-SRIF binding to cloned SSTR-2. Here is the method: (§1) The somatostatin analogs were tested for their potency in inhibition of the binding of ^125 I-Tyr^11 -SRIF (based on the method described by Raynor et. al., Molecular Pharmacology 43, 838-844, 1993) to membrane preparations expressing the transmembranal somatostatin receptors (SSTR-1,2,3,4 or 5). The receptor preparations used for these tests were either from the cloned receptors selectively and stably expressed in Chinese Hamster Ovary (CHO) cells or from cell lines naturally expressing the SSTRs. […] The binding reactions were filtered, the filters were washed and the bound radioactivity was counted in gamma counter. […] In order to validate positive signals of the binding tests, and to eliminate non-specific signals, samples of irrelevant peptides, such as GnRH, that were synthesized and handled using the same procedures, were tested in the same assays as negative control samples.

Assay [5] concerns the target T2, human SSTR-5. Description: Radioligand binding, inhibition of 125I-Tyr11-SRIF binding to cloned human SSTR-5. Here is the method: as §1
Assay [6] relates to Growth Hormone (GH) release. Description: Inhibition of growth hormone release in rats. In kind it is in vivo, rat. The conditions noted are these: Sprague-Dawley male rats, 10 mg/kg subcutaneously, versus saline. Here is the method:
In vivo determination of the pharmacodynamic properties of cyclic peptide SST analogs was carried out in rats, according to known procedures. Inhibition of Growth Hormone (GH) release as a result of peptide administration was measured in Sprague-Dawley male rats. […] Time course profiles for GH release under constant experimental conditions were measured.
Adult male Sprague-Dawley rats, specific pathogen free (SPF), weighing 200-350 g, were maintained on a constant light-dark cycle (light from 8:00 to 20:00 h), temperature (21±3° C.), and relative humidity (55±10%). Laboratory chow and tap water were available ad libitum. On the day of the experiment, rats were anesthetized with pentobarbitone (50 mg/kg). […] A single blood sample (0.6 ml) was taken from the exposed cannulated jugular vein for the determination of the basal GH levels (-15 min.). Immediately thereafter the appropriate peptide treatment was administered. […] A physiological saline solution (0.9% NaCl) was administered as a control. All peptides were administered subcutaneously in a final volume of 0.2 ml. Further sampling was carried out at 15, 30, 60, and 90 minutes after peptide administration. […]
Rat growth hormone (rGH) [^125 I] levels were determined by means of a radioimmunoassay kit (Amersham). […] All samples were measured in duplicate.

The test system of assay [7] is insulin release. Description: Glucose induced insulin release in rats. In kind it is in vivo, rat.
The test system of assay [8] is plasma amylase release. Description: Bombesin stimulated plasma amylase release in rats. In kind it is in vivo, rat. As to the method: (§2) Inhibition of either insulin or amylase release has been reported (Reisine and Bell, ibid.) to be highly correlated with affinity to the SST receptor subtype SSTR-5, while i inhibition of pituitary growth hormone (GH) release, pancreatic glucagon, and gastric acid secretion were SSTR-2 mediated. […] These doses were compared to the synthetic analog SMS-201 995 administered at a dose of 10 μg/kg.
(§3) Male Wister rats (weighing 200-220 g) were anaesthetized with pentobarbital (60 mg/kg) by the intraperitoneal (IP) route. The animals were allowed free access to food and water until 18 h before experiment, when all food (but not the water) was withdrawn. Furthermore the animals were housed in cages with wide mesh wire bottoms to prevent coprophagia (feeding on excrement).
(§4) After cannulation, a 0.7 ml sample of blood was drawn from the jugular vein, and transferred into an Eppendorf tube containing 20 IU heparin solution 5000 IU/ml. One minute later the peptides were administered subcutaneously (SC in 0.2 ml of 0.9% NaCl). Control rats were pretreated with 0.2 ml of 0.9% NaCl. At time 0 (5 min. after collection of baseline blood sample-1) a bombesin infusion (50 nmol/kg/hr) was started in all animals. Additional blood samples were collected at constant time intervals of 60, 90 and 120 min. during bombesin infusion.
(§5) Blood samples were collected into ice-cold tubes containing heparin (20 IU/ml) and were centrifuged (1500 g×10 min.). Plasma samples were frozen and kept at -20° C. until assayed for amylase and lipase.
Amylase levels were measured in plasma with the commercial (Raichem™) Amylase reagent.

The test system of assay [9] is plasma lipase release. Description: Bombesin stimulated plasma lipase release in rats. In kind it is in vivo, rat. Here is the method: as §2, §3, §4, §5
Lipase levels were measured in plasma with a commercial kit (Randox™).

The target in assay [10] is T4, SSTR-1 (Homo sapiens, UniProt P30872). Description: Radioligand binding, inhibition of 125I-Tyr11-SRIF binding to cloned SSTR-1. Here is the method: as §1
For assay [11], the target named is T5, SSTR-3 (Homo sapiens, UniProt P32745). The experiment in a line: Radioligand binding, inhibition of 125I-Tyr11-SRIF binding to cloned SSTR-3. As to the method: as §1
The target of assay [12] is T1, SSTR-4. Description: Radioligand binding, inhibition of 125I-Tyr11-SRIF binding to cloned SSTR-4. As to the method: as §1
Assay [13] addresses T3, rat SSTR-5. Description: Radioligand binding, inhibition of 125I-Tyr11-SRIF binding to cloned rat SSTR-5. Here is the method:
as §1

For assay [14], the system named is somatostatin receptors (SSTR-1,2,3,4 or 5). Description: Radioligand binding assay, negative control peptides. Particulars: irrelevant peptides tested in the same assays. As to the method:
as §1

Assay [15] has as its target T4, SSTR-1. Particulars: Table 22; known SST analogs, literature values; cited from earlier work.
For assay [16], the system named is SSTR-2. Particulars: Table 22; known SST analogs, literature values; cited from earlier work.
The target of assay [17] is T5, SSTR-3. The conditions noted are these: Table 22; known SST analogs, literature values; cited from earlier work.

T2 sequence (P35346 whole entry): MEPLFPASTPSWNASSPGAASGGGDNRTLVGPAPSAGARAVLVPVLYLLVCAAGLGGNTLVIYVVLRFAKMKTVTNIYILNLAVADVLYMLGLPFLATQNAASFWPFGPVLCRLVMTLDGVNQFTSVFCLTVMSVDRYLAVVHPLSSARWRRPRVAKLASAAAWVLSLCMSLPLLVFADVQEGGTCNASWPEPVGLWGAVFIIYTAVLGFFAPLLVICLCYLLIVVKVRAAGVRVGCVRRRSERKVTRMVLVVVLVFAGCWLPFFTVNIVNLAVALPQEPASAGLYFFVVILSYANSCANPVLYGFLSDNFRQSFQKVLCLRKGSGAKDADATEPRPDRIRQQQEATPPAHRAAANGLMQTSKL
T1 sequence (P31391 whole entry, species assumed): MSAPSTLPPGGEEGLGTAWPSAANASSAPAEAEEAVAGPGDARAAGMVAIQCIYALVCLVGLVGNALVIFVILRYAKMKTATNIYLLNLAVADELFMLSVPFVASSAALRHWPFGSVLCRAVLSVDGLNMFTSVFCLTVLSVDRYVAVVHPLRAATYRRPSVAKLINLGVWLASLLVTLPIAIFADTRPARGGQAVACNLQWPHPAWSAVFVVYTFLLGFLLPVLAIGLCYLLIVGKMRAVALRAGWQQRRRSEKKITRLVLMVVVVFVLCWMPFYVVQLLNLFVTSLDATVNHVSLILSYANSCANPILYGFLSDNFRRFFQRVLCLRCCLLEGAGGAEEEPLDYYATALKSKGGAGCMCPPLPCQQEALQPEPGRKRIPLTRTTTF
T4 sequence (P30872 whole entry, species assumed): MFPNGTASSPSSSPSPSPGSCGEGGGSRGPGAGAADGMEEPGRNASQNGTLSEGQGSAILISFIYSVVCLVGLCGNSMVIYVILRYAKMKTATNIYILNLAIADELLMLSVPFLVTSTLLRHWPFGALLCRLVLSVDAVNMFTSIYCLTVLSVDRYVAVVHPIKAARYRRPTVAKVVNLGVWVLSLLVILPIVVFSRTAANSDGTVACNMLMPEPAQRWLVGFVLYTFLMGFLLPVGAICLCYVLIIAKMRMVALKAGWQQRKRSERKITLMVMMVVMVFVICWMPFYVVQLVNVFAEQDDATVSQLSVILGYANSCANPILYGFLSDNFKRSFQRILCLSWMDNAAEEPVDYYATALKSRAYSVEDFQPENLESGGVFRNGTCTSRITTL
T5 sequence (P32745 whole entry, species assumed): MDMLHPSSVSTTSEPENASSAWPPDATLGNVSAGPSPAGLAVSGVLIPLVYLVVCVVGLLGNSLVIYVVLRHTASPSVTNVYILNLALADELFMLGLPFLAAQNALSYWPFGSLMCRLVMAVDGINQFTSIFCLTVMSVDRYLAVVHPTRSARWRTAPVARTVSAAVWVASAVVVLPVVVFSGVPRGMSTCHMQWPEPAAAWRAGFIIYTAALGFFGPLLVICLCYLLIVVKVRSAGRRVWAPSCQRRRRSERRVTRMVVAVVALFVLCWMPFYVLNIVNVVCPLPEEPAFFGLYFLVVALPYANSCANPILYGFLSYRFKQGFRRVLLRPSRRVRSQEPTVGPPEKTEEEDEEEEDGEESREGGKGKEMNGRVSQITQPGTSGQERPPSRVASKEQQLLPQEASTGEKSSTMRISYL

In the case of “DPhe^5 -Phe^6 -Phe^7 -DTrp^8 -Lys^9 -Thr^10 -Phe^11 -Thr^12 -NH2 [BIM-23052]”, the IC50 in assay [1] was 18 nM; in assay [2], 4 nM; in [3], 0.004 nM.
As for `CC(C)[C@@H]1NC(=O)[C@H](CCCCN)NC(=O)[C@@H](Cc2c[nH]c3ccccc23)NC(=O)[C@H](Cc2ccc(O)cc2)NC(=O)[C@H](Cc2ccccc2)NCCNC(=O)CCCN([C@@H](Cc2ccccc2)C(=O)N[C@H](C(N)=O)[C@@H](C)O)C1=O` [PTR 3046, cyclo(PheN2^6 -Tyr^7 -DTrp^8 -Lys^9 -Val^10 -PheC3^11)-Thr^12 -NH2] (HELM PEPTIDE1{[O=C([C@H](Cc1ccccc1)NCCN[*:3])[*:2]].Y.[dW].K.V.[O=C([C@H](Cc1ccccc1)N(CCCC(=O)[*:3])[*:1])[*:2]].T.[am]}$PEPTIDE1,PEPTIDE1,1:R3-6:R3$$$V2.0), the “binding to SSTR-2, in words” value in assay [4] was “does not bind”. Moreover, the IC50 is 500 nM in [4] (Table 21, inhibition of iodinated SRIF-14 binding, CHO cells, tested at 10^-6, 10^-7, 10^-8 M, read-out: IC50 SSTR-2) and more than 1000 nM in assay [4] (text summary of Example 85 binding data, read-out: affinity to SSTR-2). Besides, the “affinity to human SSTR-5, in words” value in assay [5] (cloned human receptor) was “high affinity”. Also, the “inhibition of growth hormone release” value in [6] was “not significantly different from saline”. For the same compound, the “decrease in insulin release” value in assay [7] (Wister rats, 7 μg/kg subcutaneously, glucose 0.5 g/kg IV, versus control rats, p<0.05) is 43%. In addition, the “potency on insulin release relative to Octreotide” value in [7] (in vivo, from present study and manufacturer's ED 50 of Octreotide) came out at 4 times. For the same compound, the “inhibition of bombesin induced release of plasma amylase” value was 31% in assay [8] (3 μg/kg SC, 90 min.); 23% in [8] (3 μg/kg SC, 120 min.); 60% in assay [8] (25 μg/kg SC, 90 min.); 52% in assay [8] (25 μg/kg SC, 120 min.). In addition, the “inhibition of bombesin-stimulated lipase secretion” value is given as 33% in assay [9] (3 μg/kg SC, 90 min.); 26% in assay [9] (3 μg/kg SC, 120 min.); 30% in assay [9] (12.5 μg/kg SC, 90 min.); 25% in assay [9] (12.5 μg/kg SC, 120 min.); 51% in [9] (25 μg/kg SC, 90 min.); 35% in assay [9] (25 μg/kg SC, 120 min.).
Turning to `C[C@@H](O)[C@H](NC(=O)CN1CCC(=O)NCCCN(C(=O)[C@H](N)Cc2ccccc2)CC(=O)N[C@@H](Cc2ccccc2)C(=O)N[C@H](Cc2c[nH]c3ccccc23)C(=O)N[C@@H](CCCCN)C(=O)N[C@@H]([C@@H](C)O)C1=O)C(N)=O` [PTR 3010] (HELM PEPTIDE1{[dF].[O=C(CN(CCCN[*:3])[*:1])[*:2]].F.[dW].K.T.[O=C(CN(CCC(=O)[*:3])[*:1])[*:2]].T.[am]}$PEPTIDE1,PEPTIDE1,2:R3-7:R3$$$V2.0), the IC50 in assay [10] is 2500 nM; in [11], more than 1000 nM; in assay [12] it was more than 10000 nM; in assay [5], more than 2000 nM; in assay [13], 500 nM.
For the compound “GnRH: irrelevant peptide tested as negative control sample”, the “binding activity of negative control samples” value in assay [14] was “no binding activity”.
For `CC(C)[C@@H]1NC(=O)[C@H](CCCCN)NC(=O)[C@@H](Cc2c[nH]c3ccccc23)NC(=O)[C@H](Cc2ccc(O)cc2)NC(=O)[C@@H](NC(=O)[C@H](N)Cc2ccc3ccccc3c2)CSSC[C@@H](C(=O)N[C@H](C(N)=O)[C@@H](C)O)NC1=O` [Somatuline], the IC50 in assay [15] was 800 nM; in assay [16], 2 nM; in assay [17], 6 nM; in [3], 0.5 nM.
